Data from patent US20240122179A1, “AUXINIC HERBICIDES AND METHODS OF USE THEREOF” (CORTEVA AGRISCIENCE LLC, priority 2021, published 2024).
Read-outs that look alike come from different tables or passages of the source.

What was measured:
[1] = Volatility of compounds measured by thermogravimetric analysis (TGA), rate of weight loss; format: physicochemical; conditions: estimates of volatility
Source text: Briefly, the rate of weight loss measured in units of […]g/min can be used to determine vapor pressure as shown by the simplified equation: wherein, k is the intrinsic volatility and A is the surface area, Referring now to FIG. 2. A graph of weight loss as function of time for solid samples produces a linear curve; the slope of the curve is the rate of weight loss. When this method is used to measure the volatility of aqueous salt concentrates or liquid concentrates, the water or acetone present in the sample volatilizes before the sample of interest. The first linear loss region of the curve is the loss of water or acetone and the second linear region is characteristic of the sample of interest. In order to illustrate the difference in volatility between some of the compounds disclosed herein and the widely used herbicide dicamba, data from both the compounds and dicamba are presented Table 3 and in FIG. 1.

[2] = tested on: Conyza canadensis (L.) (ERICA); test: Postemergence herbicide evaluation, percent reduction in plant size vs untreated control, 21 days after treatment; format: in vivo, Conyza canadensis (L.) (Horseweed); conditions: Erigeron canadensis, post-emergence, 504 h, ERICA, postemergence, read-out: Control/Injury; for pest or weed control at 140 g/ha: rate 140 g ae/ha; for pest or weed control at 280 g/ha: rate 280 g ae/ha
How it was run: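 Track-sprayer applications (187 L/ha, 276 kPa) of 140 or 280 g ae/ha, technical material dissolved in acetone/DMSO then diluted with crop oil and surfactant-containing solvent, to greenhouse Conyza canadensis at 2-8 leaves. After 21 days, size reduction relative to untreated plants was recorded; 3-4 randomized replicates.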

[3] = tested on: Ambrosia artemisiifolia (AMBEL); test: as above; format: in vivo, Ambrosia artemisiifolia (common ragweed); conditions: post-emergence, 504 h, AMBEL, postemergence, read-out: Control/Injury; for pest or weed control at 140 g/ha: rate 140 g ae/ha; for pest or weed control at 280 g/ha: rate 280 g ae/ha
How it was run: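 Test compounds at 140 or 280 g ae/ha were applied by track sprayer (187 L/ha, spray solution containing acetone/DMSO, isopropanol, crop oil, surfactant) to 2–8 leaf plants, 3–4 replicates. Plants were kept in a greenhouse at 25–28 °C. Size reduction was scored against untreated controls at 21 days.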

[4] = tested on: Kochia scoparia (KCHSC); test: as above; format: in vivo; conditions: KCHSC, postemergence; for pest or weed control at 140 g/ha / pest or weed control at 280 g/ha: Bassia scoparia, post-emergence, 504 h, read-out: Control/Injury; for pest or weed control at 280 g/ha: rate 280 g ae/ha
How it was run: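 Values are percent reduction in plant size against an untreated control, measured 21 days after a single postemergence spray at 140 or 280 g ae/ha (187 L/ha, 276 kPa). Treatments used 3-4 randomized complete-block replicates on 2 to 8 leaf-stage plants kept in a 25-28 °C greenhouse, with compounds in acetone/DMSO-based solvent containing crop oil and surfactant.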

[5] = tested on: Amaranthus palmeri (AMAPA); test: as above; format: in vivo, Amaranthus palmeri (Palmer amaranth); conditions: post-emergence, 504 h, postemergence, read-out: Control/Injury; for pest or weed control at 140 g/ha: rate 140 g ae/ha; for pest or weed control at 280 g/ha: rate 280 g ae/ha
How it was run: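 Percent reduction in plant size relative to untreated plants, measured 21 days after track-sprayer application (187 L/ha) of 140 or 280 g ae/ha to Amaranthus palmeri at the 2 to 8 leaf stage. Randomized complete block, 3 or 4 replicates, greenhouse at 25 to 28° C; spray solution acetone/DMSO with isopropanol, water and crop oil concentrate.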

[6] = tested on: Amaranthus rudis (AMATA); test: as above; format: in vivo, Amaranthus rudis (tall water hemp); conditions: Amaranthus tuberculatus, post-emergence, 504 h, AMATA, postemergence, read-out: Control/Injury; for pest or weed control at 140 g/ha: rate 140 g ae/ha; for pest or weed control at 280 g/ha: rate 280 g ae/ha
How it was run: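 Growth-reduction values are percent decrease in plant size relative to untreated plants, scored 21 days post-application. Amaranthus rudis (2-8 leaves) received postemergence sprays at 140 or 280 g ae/ha, 187 L/ha, in a mixed acetone/DMSO/water/isopropanol carrier with crop oil concentrate. Greenhouse conditions were 25-28° C, 50-60% RH; 3-4 randomized replicates.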

[7] = percent reduction vs untreated control, 21 days after treatment
[8] = R-AMAPA, percent reduction vs untreated control, 21 days after treatment
[9] = percent reduction vs untreated, 21 days after treatment

COc1ccccc1/C(N)=N/OC(=O)c1c(Cl)ccc(Cl)c1OC [Compound A-21]
Volatility [1]: 0.074 ng/min
pest or weed control at 140 g/ha [2, 7]: 95%
pest or weed control at 280 g/ha [2, 7]: 98%

COc1c(Cl)ccc(Cl)c1C(=O)OCOC(=O)c1ccccc1 [Compound A-51]
Volatility [1]: 0.25 ng/min
pest or weed control at 140 g/ha [3]: 90%
pest or weed control at 280 g/ha [3]: 95%
pest or weed control at 140 g/ha ([4]; rate 140 g ae/ha): 92%
pest or weed control at 280 g/ha [4]: 99%
pest or weed control at 140 g/ha [5, 8]: 95%
pest or weed control at 280 g/ha [5, 8]: 95%

COc1c(Cl)ccc(Cl)c1C(=O)O/N=C(\N)c1cncnc1 [Compound A-35]
Volatility [1]: 0.022 ng/min
pest or weed control at 140 g/ha [2, 7]: 96%
pest or weed control at 280 g/ha [2, 7]: 99%

COc1c(Cl)ccc(Cl)c1C(=O)O/N=C(\N)c1ccc2ncccc2c1 [Compound A-25]
Volatility [1]: 0.021 ng/min
pest or weed control at 140 g/ha [2, 7]: 95%
pest or weed control at 280 g/ha [2, 7]: 90%

COc1c(Cl)ccc(Cl)c1C(=O)O/N=C(\N)c1ccc(C)cc1 [Compound A-17]
Volatility [1]: 0.026 ng/min
pest or weed control at 140 g/ha [2, 7]: 94%
pest or weed control at 280 g/ha [2, 7]: 95%

COc1c(Cl)ccc(Cl)c1C(=O)O/N=C(\N)c1ccccc1 [Compound A-49]
Volatility [1]: 0.08 ng/min
pest or weed control at 140 g/ha [3]: 98%
pest or weed control at 280 g/ha [3]: 99%
pest or weed control at 140 g/ha ([4]; rate 140 g ae/ha): 82%
pest or weed control at 280 g/ha [4]: 100%
pest or weed control at 140 g/ha [5, 8]: 95%
pest or weed control at 280 g/ha [5, 8]: 100%
pest or weed control at 140 g/ha [2, 7]: 95%
pest or weed control at 280 g/ha [2, 7]: 98%

COc1c(Cl)ccc(Cl)c1C(=O)O/N=C(\N)c1ccncc1 [Compound A-33]
Volatility [1]: 0.015 ng/min
pest or weed control at 140 g/ha [2, 7]: 87%
pest or weed control at 280 g/ha [2, 7]: 93%

COc1c(Cl)ccc(Cl)c1C(=O)O/N=C(\N)c1ccsc1 [Compound A-37]
Volatility [1]: 0.145 ng/min
pest or weed control at 140 g/ha [2, 7]: 87%
pest or weed control at 280 g/ha [2, 7]: 96%

COc1c(Cl)ccc(Cl)c1C(=O)O/N=C(\N)c1ccc(Cl)c(Cl)c1 [Compound A-14]
Volatility [1]: 0.056 ng/min

COc1c(Cl)ccc(Cl)c1C(=O)O/N=C(\C)c1ccccc1 [Compound A-46]
Volatility [1]: 0.1 ng/min
pest or weed control at 140 g/ha [3]: 85%
pest or weed control at 280 g/ha [3]: 82%
pest or weed control at 140 g/ha ([4]; rate 140 g ae/ha): 99%
pest or weed control at 280 g/ha [4]: 100%
pest or weed control at 140 g/ha [5, 8]: 85%
pest or weed control at 280 g/ha [5, 8]: 80%

COc1c(Cl)ccc(Cl)c1C(=O)OCc1ccc(COC(=O)c2c(Cl)ccc(Cl)c2OC)cc1 [Compound A-56]
Volatility [1]: 0.08 ng/min

COc1c(Cl)ccc(Cl)c1C(=O)O/N=C(\N)c1ccco1 [Compound A-38]
Volatility [1]: 0.46 ng/min
pest or weed control at 140 g/ha [2, 7]: 89%
pest or weed control at 280 g/ha [2, 7]: 97%

COc1c(Cl)ccc(Cl)c1C(=O)O/N=C(\N)c1ccc(Cl)cc1Cl [Compound A-15]
Volatility [1]: 0.0098 ng/min
pest or weed control at 140 g/ha [2, 7]: 98%
pest or weed control at 280 g/ha [2, 7]: 96%

COc1c(Cl)ccc(Cl)c1C(=O)O/N=C(\N)c1ccccc1Cl [Compound A-13]
Volatility [1]: 0.012 ng/min

COc1c(Cl)ccc(Cl)c1C(=O)O/N=C(\N)c1ccccc1 [Compound A-150]
Volatility [1]: 0.08 ng/min
pest or weed control at 140 g/ha ([4]; rate 140 g ae/ha, percent reduction vs untreated, 21 days after treatment): 88%
pest or weed control at 280 g/ha [4, 9]: 99%
pest or weed control at 140 g/ha ([5]; AMAPA): 80%
pest or weed control at 280 g/ha ([5]; AMAPA): 78%
pest or weed control at 140 g/ha [2]: 98%
pest or weed control at 280 g/ha [2]: 97%
pest or weed control at 140 g/ha [2, 9]: 95%
pest or weed control at 280 g/ha [2, 9]: 98%

COc1c(Cl)ccc(Cl)c1C(=O)OCc1cccnc1 [Compound A-45]
Volatility [1]: 0.73 ng/min

COc1c(Cl)ccc(Cl)c1C(=O)O/N=C(\N)c1cccnc1 [Compound A-50]
Volatility [1]: 0.09 ng/min
pest or weed control at 140 g/ha [6]: 95%
pest or weed control at 280 g/ha [6]: 97%
pest or weed control at 140 g/ha [3]: 90%
pest or weed control at 280 g/ha [3]: 100%
pest or weed control at 140 g/ha ([4]; rate 140 g ae/ha): 99%
pest or weed control at 280 g/ha [4]: 99%
pest or weed control at 140 g/ha [5, 8]: 95%
pest or weed control at 280 g/ha [5, 8]: 99%

COc1c(Cl)ccc(Cl)c1C(=O)O/N=C(\N)C(C)C [Compound A-48]
Volatility [1]: 0.38 ng/min
pest or weed control at 140 g/ha [6]: 60%
pest or weed control at 280 g/ha [6]: 90%
pest or weed control at 140 g/ha [3]: 85%
pest or weed control at 280 g/ha [3]: 100%
pest or weed control at 140 g/ha ([4]; rate 140 g ae/ha): 90%
pest or weed control at 280 g/ha [4]: 100%
pest or weed control at 140 g/ha [5, 8]: 90%
pest or weed control at 280 g/ha [5, 8]: 99%

COc1c(Cl)ccc(Cl)c1C(=O)OCOC(=O)c1c(Cl)ccc(Cl)c1OC [Compound A-53]
Volatility [1]: 0.19 ng/min
pest or weed control at 140 g/ha [3]: 60%
pest or weed control at 280 g/ha [3]: 70%
pest or weed control at 140 g/ha ([4]; rate 140 g ae/ha): 85%
pest or weed control at 280 g/ha [4]: 90%
Control/Injury ([4]; rate 140 g ae/ha): 85
pest or weed control at 140 g/ha [5, 8]: 70%
pest or weed control at 280 g/ha [5, 8]: 98%

COc1c(Cl)ccc(Cl)c1C(=O)O/N=C(\N)CC(C)C [Compound A-59]
Volatility [1]: 0.086 ng/min
pest or weed control at 140 g/ha [2, 7]: 94%
pest or weed control at 280 g/ha [2, 7]: 99%

COc1c(Cl)ccc(Cl)c1C(=O)OCCOCCOC(=O)c1c(Cl)ccc(Cl)c1OC [Compound A-55]
Volatility [1]: 0.24 ng/min
pest or weed control at 140 g/ha [3]: 25%
pest or weed control at 280 g/ha [4]: 15%

COc1c(Cl)ccc(Cl)c1C(=O)O/N=C(\N)c1ccc2ccoc2c1 [Compound A-26]
Volatility [1]: 0.0034 ng/min
pest or weed control at 140 g/ha [2, 7]: 93%
pest or weed control at 280 g/ha [2, 7]: 93%

COc1c(Cl)ccc(Cl)c1C(=O)O/N=C(\N)c1ccccn1 [Compound A-34]
Volatility [1]: 0.039 ng/min
pest or weed control at 140 g/ha [2, 7]: 87%
pest or weed control at 280 g/ha [2, 7]: 97%

COc1c(Cl)ccc(Cl)c1C(=O)O/N=C(\N)C1CCCCC1 [Compound A-6]
Volatility [1]: 0.064 ng/min
pest or weed control at 140 g/ha [2, 7]: 98%
pest or weed control at 280 g/ha [2, 7]: 98%

COc1c(Cl)ccc(Cl)c1C(=O)O/N=C(\N)c1cccs1 [Compound A-36]
Volatility [1]: 0.417 ng/min
pest or weed control at 140 g/ha [2, 7]: 83%
pest or weed control at 280 g/ha [2, 7]: 98%

COc1c(Cl)ccc(Cl)c1C(=O)O/N=C(\N)Cc1ccccc1 [Compound A-8]
Volatility [1]: 0.189 ng/min
pest or weed control at 140 g/ha [2, 7]: 98%
pest or weed control at 280 g/ha [2, 7]: 99%
